Test results: US9751919B2, “Antimicrobial compositions comprising a hyaluronic acid binding peptide and a β-lactam antibiotic” (priority 2012, dated 2017)
“Also recorded” adds a separate entry of the source.

How the values were obtained:
[1] = tested on: MRSA, VISA, VRSA and E. coli; assay: Checkerboard assay, panel statement; format: cell-based
Description: Checkerboard assays were carried out as described by Bonapace et al.
Diagnostic Microbiology and Infectious Diseases 2002; 44:363-366. In brief, checkerboard assays were performed in 96 well microtitre trays using an 8-by-8 well configuration. […] 96-well custom designed microtitre plates contained 100 ul/well of cation adjusted Mueller-Hinton broth (eg. for Enterobacteriaceae) with or without lysed horse blood (2-5% V/V) [eg. for S. pneumoniae] and were inoculated to achieve a final concentration of approximately 5×10^5 CFU/ml and incubated in ambient air for 24 hours prior to reading. Colony counts were performed periodically to confirm inocula. Quality control was performed every two weeks using a variety of ATCC QC organisms including; S. pneumoniae 49619, S. aureus 29213, E. faecalis 29212, E. coli 25922 and P. aeruginosa 27853. […] All peptides were assessed for synergy with β-lactams and vancomycin. For all antimicrobials as well as the peptides, CLSI criteria were used.
(§1) The fractional inhibitory concentration index (FIC index) was used to interpret synergy, antagonism or additivity/indifference. FIC index=FIC of drug A+FIC of drug B where:
The FIC of drug A and drug B was calculated as follows, FIC drug A=MIC of drug A in combination/MIC of drug A alone and FIC of drug B=MIC of drug B in combination/MIC of drug B alone. Synergy was defined as FIC index ≦0.5, additivity/indifference defined as a FIC between 0.5 and 4 and antagonism defined as an FIC index >4.
The fractional inhibitory concentration index (FIC index) was used to interpret synergy, antagonism or additivity/indifference. FIC index=FIC of drug A+FIC of drug B where the FIC of drug A and drug B was calculated as follows, FIC drug A=MIC of drug A in combination/MIC of drug A alone and FIC of drug B=MIC of drug B in combination/MIC of drug B alone. Synergy was defined as FIC index ≦0.5, additivity/indifference defined as an FIC of between 0.5 and 4 and antagonism defined as an FIC index >4.

[2] = tested on: P. mirabilis; assay: MIC, agent alone (broth microdilution); format: cell-based, Proteus mirabilis; settings: footnote to Table 12; P. mirabilis 80267 and 81569
From the text: (§2) Organisms included Gram-positive cocci (2 strains of each): Methicillin-susceptible Staphylococcus aureus (MSSA), community-associated (CA) and healthcare-associated (HA) methicillin-resistant Staphylococcus aureus (MRSA), vancomycin-intermediate Staphylococcus aureus (VISA), vancomycin-resistant Staphylococcus aureus (VRSA), methicillin-resistant Staphylococcus epidermidis (MRSE), Streptococcus pyogenes, Streptococcus agalactiae, Streptococcus pneumoniae, Enterococcus faecalis, Enterococcus faecium and vancomycin-resistant enterococcus (VRE). Gram-negative bacilli tested (2 strains of each) included: E. coli, Pseudomonas aeruginosa, Klebsiella pneumoniae, K. oxytoca, Enterobacter cloacae, P. mirabilis and Stenotrophomonas maltophilia. MIC testing, following two subcultures from frozen stock were determined by the CLSI 2005 approved broth microdilution method.

[3] = tested on: MRSA, VISA, VRSA and E. coli; assay: MIC, agent alone, panel statement; format: cell-based; settings: CA-MRSA and HA-MRSA (checkerboard strains of Table 11)
Description: VISA (strains 92, 95 and 96), VRSA (strains 105 and 106) and E. coli (strain 69717) isolates were also tested. One MSSA was used as a control. All MICs were assessed using CLSI guidelines. Also assessed was the activity of cefazolin, ceftriazone, meropenem, and a piperacillin/tazobactam combination antibiotic. Minimum inhibitory concentration (MIC) is the lowest concentration of an antimicrobial that will inhibit the visible growth of a microorganism after incubation.
Antimicrobial Susceptibility Testing: A custom designed panel of antimicrobials was created. The panel included: PEP35, penicillin, piperacillin/tazobactam, cefazolin, ceftriaxone, meropenem, clarithromycin, clindamycin, gentamicin, amikacin, vancomycin, ciprofloxacin, levofloxacin, moxifloxacin, linezolid, trimethoprim/sulfamethoxazole and doxycycline. These agents were obtained as laboratory grade powders from their respective manufacturers. Stock solutions were prepared and dilutions made as described by the Clinical Laboratory Standards Institute (2005 CLSI). Following two subcultures from frozen stock the MICs of the antimicrobial agents for the isolates were determined by the CLSI 2005 approved broth macrodilution method. Briefly, test tubes containing doubling antibiotic dilutions (2 ml per tube) of cation adjusted Mueller-Hinton broth (eg. for Enterobacteriaceae) with or without lysed horse blood (2-5% V/V) [eg. for S. pneumoniae] were inoculated to achieve a final concentration of approximately 5×10^5 CFU/ml and incubated in ambient air for 24 hours prior to reading. Colony counts were performed periodically to confirm inocula. Quality control was performed every two weeks using a variety of ATCC QC organisms including; S. aureus 29213, E. faecalis 29212, E. coli 25922 and P. aeruginosa 27853. For all antimicrobials as well as PEP35, CLSI criteria were used.

[4] = tested on: Gram-negative bacilli; assay: Checkerboard assay, panel statement; format: cell-based; settings: with gentamicin, levofloxacin, piperacillin-tazobactam, meropenem and colistin; all Gram-negative bacilli tested
Description: (§3) The checkerboard assays were carried out as described by Eliopoulos and Moellering (Chapter 9) in Antibiotic in Laboratory Medicine, Lorian Ed. 1996 as well as Bonapace et al. Diagnostic Microbiology and Infectious Diseases 2002; 44:363-366 and Bonapace et al. Diagnostic Microbiology and Infectious Diseases 2000; 38:43-50. In brief, checkerboard assays were performed in 96 well microtitre trays using an 8-by-8 well configuration. […] 96-well custom designed microtitre plates contained 100 ul/well of cation adjusted Mueller-Hinton broth (eg. for Enterobacteriaceae) with or without lysed horse blood (2-5% V/V) [eg. for S. pneumoniae] and were inoculated to achieve a final concentration of approximately 5×10^5 CFU/ml and incubated in ambient air for 24 hours prior to reading. Colony counts were performed periodically to confirm inocula. Quality control was performed every two weeks using a variety of ATCC QC organisms including; S. pneumoniae 49619, S. aureus 29213, E. faecalis 29212, E. coli 25922 and P. aeruginosa 27853. For all antimicrobials as well as PEP35, CLSI criteria was used.
as §1
(§4) The FIC of drug A and drug B is calculated as follows, FIC drug A=MIC of drug A in combination/MIC of drug A alone and FIC of drug B=MIC of drug B in combination/MIC of drug B alone. Synergy is defined as FIC index ≦0.5, additivity/indifference FIC >0.5-4 and antagonism FIC index >4.
(§5) Antimicrobials used included PEP35, cefazolin, ceftriaxone, vancomycin, linezolid, tigecycline and daptomycin versus Gram-positive cocci and PEP35, gentamicin, levofloxacin, piperacillin/tazobactam, meropenem and colistin (Polymyxin E) versus Gram-negative bacilli. These agents were obtained as laboratory grade powders from their respective manufacturers. Stock solutions were prepared and dilutions made as described by the Clinical Laboratory Standards Institute (2005 CLSI).
as §2, with “Gram-negative bacilli tested (2 strains of each) included: E. coli, Pseudomonas aeruginosa, Klebsiella pneumoniae, K. oxytoca, Enterobacter cloacae, P. mirabilis and Stenotrophomonas maltophilia.” left out

[5] = tested on: Gram-positive cocci; assay: Checkerboard assay, panel statement; format: cell-based
Description: as §3, §1, §4, §5
as §2, with “Gram-negative bacilli tested (2 strains of each) included: E. coli, Pseudomonas aeruginosa, Klebsiella pneumoniae, K. oxytoca, Enterobacter cloacae, P. mirabilis and Stenotrophomonas maltophilia.” left out

[6] = with cefazolin and ceftriaxone, versus CA-MRSA, HA-MRSA, VISA and VRSA
[7] = with meropenem versus CA-MRSA, HA-MRSA, and VISA

Sequence	synergy (in words) [1, 6]	synergy (in words) [1, 7]	MIC [2]	MIC alone, range [3] [µg/mL]	interaction (in words) [4]	interaction (in words) ([5]; with cefazolin and ceftriaxone, CA-MRSA and HA-MRSA)	antagonism (in words) ([5]; with cefazolin, ceftriaxone, daptomycin, linezolid, tigecycline and vancomycin, any streptococci, staphylococci and enterococci tested)	interaction (in words) ([5]; with the six antibiotics, all streptococci, staphylococci and enterococci except CA-MRSA and HA-MRSA)
KKKKKLQLQLNLIKKKVQVSVVVVRRH (Reordered human peptide sequence) [Scrambled PEP35]	synergistic effect	synergistic effect						
LKQKIKHVVKLKVVVKLRSQLVKRKQN (listed as Mus sp.) [PEP35]	synergistic effect	synergistic effect	*PEP35 MIC > 4096	512 to 1024	did not demonstrate antagonism or synergy; also recorded: additive	synergistic	did not demonstrate antagonism	additive
